{
  "source": "patent US11992011B2",
  "about": "“Compounds for controlling plant pathogens” (VIB VZW, priority 2017, dated 2024)",
  "system": "Meloidogyne graminicola",
  "test": "Application regimens of PA, rice - Meloidogyne graminicola (Example 8)",
  "assay_type": "in vivo",
  "protocol": "Seed coatings were applied by dipping seeds in a coating solution containing 20 g/I high viscosity carboxymethylcellulose (Sigma-Aldrich, Saint Louis, USA) in distilled water as well as 300 μM of the target compound. Seeds were then dried overnight at room temperature.\nInfection experiments with M. graminicola were performed by inoculating host plants 14 days after transfer to SAP by introducing the desired amount of J2 juveniles next to the root system using a micro pipette. Rice plants (cv. Nipponbare or Kitaake) were inoculated with 250 J2 juveniles per plant; wheat plants (cv. Sahara) were inoculated with 600 J2 juveniles per plant. Plants were harvested 14 days after inoculation. At this point, the plants were phenotyped by measuring the shoot and root length with a ruler, counting the number of adventitious roots and in some experiments by measuring leaf area using the EasyLeafArea software (Easlon and Bloom, 2014) and by determining shoot dry mass after 72 hours of drying in an oven at 70° C. Root systems were then stained in acid fuchsine as described in (Byrd et al., 1983) and left to destain in glycerol with 1 ml/l fuming HCl added for approximately ten days. The number of galls and nematodes was then counted using a binocular microscope.\nFour application regimes for PA on the rice-Meloidogyne graminicola interaction were compared: a seed coating treatment, a single high-dose foliar spray prior to infection, a single high-dose foliar spray after infection and repeated lower-dose foliar sprays throughout the growing period.\nOne hundred rice seeds (cv. Nipponbare) were randomly divided into five groups of twenty seeds: a control group, seeds that were coated with carboxymethylcellulose containing 300 μM PA (PA coating), a group that would be foliarly sprayed with 100 μM PA solution three times per week (PA continuous), a group that would be sprayed once with a 300 μM PA solution one day prior to nematode inoculation (PA−1 dpi) and a group that would be sprayed once with a 300 μM PA solution seven days after nematode inoculation (PA+7 dpi).\nThe experiment was carried out as per the materials and methods described in Materials and Methods, sections Oryza sativa (rice) and Meloidogyne graminicola culture.",
  "key": {"[1]": {"conditions": "PA +7 dpi: sprayed once with 300 μM PA seven days after inoculation, n = 8"}, "[2]": {"conditions": "PA coating: seeds coated with carboxymethylcellulose solution containing 300 μM PA, n = 7"}, "[3]": {"conditions": "PA continuous: sprayed three times a week with 100 μM PA, n = 9"}, "[4]": {"conditions": "PA −1 dpi: sprayed once with 300 μM PA one day before inoculation, n = 8"}},
  "data": [
    {"smiles": "O=C(O)c1ccc2c(c1)OCO2", "note": "[PA, Piperonylic acid]", "values": [
      {"measurement": "Fraction of small galls", "setting": "[1]", "value": "0.91 ± 0.11"},
      {"measurement": "Number of galls", "setting": "[1]", "value": "18.1 ± 13.6"},
      {"measurement": "Number of galls per AR", "setting": "[1]", "value": "1.1 ± 0.6"},
      {"measurement": "Fraction of small galls", "setting": "[2]", "value": "0.96 ± 0.04"},
      {"measurement": "Number of galls", "setting": "[2]", "value": "19.0 ± 11.0"},
      {"measurement": "Number of galls per AR", "setting": "[2]", "value": "1.3 ± 0.8"},
      {"measurement": "Fraction of small galls", "setting": "[3]", "value": "0.95 ± 0.08"},
      {"measurement": "Number of galls", "setting": "[3]", "value": "18.1 ± 13.1"},
      {"measurement": "Number of galls per AR", "setting": "[3]", "value": "1.2 ± 0.7"},
      {"measurement": "mortality of seedlings from seeds coated with PA", "setting": "PA seed coating, two out of ten in the control group, not statistically significant", "value": "four of ten"},
      {"measurement": "Fraction of small galls", "setting": "[4]", "value": "0.91 ± 0.06"},
      {"measurement": "Number of galls", "setting": "[4]", "value": "25.3 ± 9.4"},
      {"measurement": "Number of galls per AR", "setting": "[4]", "value": "1.4 ± 0.5"}
    ]}
  ]
}
